Assay [1] relates to Mus musculus. Kind of assay: Compound (at 30 mg/kg) was evaluated in vivo for the inhibition of phenylbenzoquinone induced painful reactions in mice. The format is functional.
Assay [2] has as its system Mus musculus. Kind of assay: In vivo analgesic activity in phenylbenzoquinone-induced writhing test in mice. The format is functional.
In assay [3] the test system is Mus musculus. Kind of assay: In vivo analgesic activity in hot plate test in mice. The format is functional. (In hot-plate and tail-flick tests a longer latency is read as antinociception.)
Assay [4] relates to Mus musculus. Kind of assay: Compound (at 30 mg/kg) was evaluated in vivo for the inhibition of painful reactions in mice in the hot plate test. Format: functional.
For assay [5], the target named is Sodium-dependent serotonin transporter (Rattus norvegicus, UniProt P31652). Description: Binding affinity on Serotonin transporter was determined in rat.
Assay [6] deals with Rattus norvegicus. Kind of assay: Compound (at 60 mg/kg perorally) was tested for inhibition of Freund's adjuvant-induced polyarthritis in rats. Format: functional. The conditions noted are these: route oral.
The test system of assay [7] is Mus musculus. Description: Effective dose in mice after intraperitoneal administration by tail pinch test. The format is functional. Particulars: ip.
Assay [8] deals with Rattus norvegicus. Description: Compound after peroral administration was tested for inhibition of kaolin-induced arthritis in rats. Format: functional. Particulars: po.
The species named for assay [9] is Mus musculus. Kind of assay: Effective dose in mice by tail pinch test.
Assay [10] is filed under the species Rattus norvegicus. Description: Compound was tested for inhibition of kaolin induced arthritis in rats.
Assay [11] is filed under the species Rattus norvegicus. Kind of assay: Compound was tested for inhibition of Freund's adjuvant-induced polyarthritis in rats. Format: functional.

What is called inhibition in vivo is the percentage by which the read-out fell short of the control. For orientation: ED50 means the midpoint of the dose-response relation. Low readings indicate greater potency, high ones weaker potency. As a reminder, the Ki is the equilibrium dissociation constant of an inhibitor or competing ligand from its target. Read a high Ki as lower affinity.

Sequence of Sodium-dependent serotonin transporter (P31652 whole entry): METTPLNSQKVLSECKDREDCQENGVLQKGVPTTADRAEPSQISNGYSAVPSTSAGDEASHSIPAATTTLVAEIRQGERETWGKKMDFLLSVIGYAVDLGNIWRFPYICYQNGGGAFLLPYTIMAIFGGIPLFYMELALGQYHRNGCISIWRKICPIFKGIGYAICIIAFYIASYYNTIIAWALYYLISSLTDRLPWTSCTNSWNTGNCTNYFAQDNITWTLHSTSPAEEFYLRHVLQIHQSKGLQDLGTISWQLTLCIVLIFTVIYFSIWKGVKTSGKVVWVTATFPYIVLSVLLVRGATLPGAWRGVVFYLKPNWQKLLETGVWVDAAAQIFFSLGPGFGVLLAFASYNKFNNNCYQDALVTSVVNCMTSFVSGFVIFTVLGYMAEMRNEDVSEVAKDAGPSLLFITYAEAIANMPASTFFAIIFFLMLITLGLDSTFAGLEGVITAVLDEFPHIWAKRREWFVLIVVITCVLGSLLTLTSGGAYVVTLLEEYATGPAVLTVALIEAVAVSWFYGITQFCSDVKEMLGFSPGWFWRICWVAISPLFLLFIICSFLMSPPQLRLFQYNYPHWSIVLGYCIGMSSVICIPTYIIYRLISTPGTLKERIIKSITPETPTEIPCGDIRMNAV

In the assay on Mus musculus [1], `CN1CCC(Sc2c[nH]c3ccccc23)CC1` came in with an inhibition in vivo at 30 mg/kg of 26%.
On to `CN1CCC(Sc2c[nH]c3ccc(I)cc23)CC1`, for which, in the assay on Mus musculus [2], the ED50 worked out at 54.2 mg/kg.
The same measure, in the same setting: in the case of `COc1ccc2[nH]cc(SC3CCN(C)CC3)c2c1` it was 24.9 mg/kg.
As for `Clc1ccc2[nH]cc(SC3CCNCC3)c2c1`, the values for the ED50 in the assay with Mus musculus [2] and in the assay on Mus musculus [3] were 0.3 mg/kg and 1.2 mg/kg, respectively.
Taken in the same sequence, the figures for `CC(=O)N1CCC(Sc2c[nH]c3ccc(Cl)cc23)CC1` were 2.9 mg/kg and 3.8 mg/kg.
On the same counts, the results for `CCCC(=O)N1CCC(Sc2c[nH]c3ccc(Cl)cc23)CC1` are 8.9 mg/kg and 22.7 mg/kg.
Regarding `CN1CCC(Sc2c[nH]c3ccc(O)cc23)CC1`, in the assay on Mus musculus [1], the inhibition in vivo at 30 mg/kg was determined as 9%.
On to `CCOC(=O)N1CCC(Sc2c[nH]c3ccc(Br)cc23)CC1`, for which the results for the ED50 in the assay with Mus musculus [2] and in the assay on Mus musculus [3] were 6.3 mg/kg and 27.3 mg/kg, respectively.
`Clc1ccc2[nH]cc(SC3CCN(CCc4ccccc4)CC3)c2c1`: in the assay with Mus musculus [2], the ED50 was 8.9 mg/kg. In the assay on Mus musculus [4], the inhibition in vivo at 30 mg/kg turned out to be 14%.
As for `CC(=O)N1CCC(Sc2c[nH]c3ccc(Br)cc23)CC1`, the ED50 was found to be 2.9 mg/kg in the assay on Mus musculus [2] and 2.8 mg/kg in the assay on Mus musculus [3].
Consider `CCN1CCC(Sc2c[nH]c3ccc(Cl)cc23)CC1`, for which the ED50 in the assay on Mus musculus [3] was 33.3 mg/kg. Moreover, at 30 mg/kg the inhibition in vivo in the assay with Mus musculus [1] was 42%.
On to `O=S(=O)(c1c[nH]c2ccc(Cl)cc12)C1CCNCC1`, for which the ED50 in the assay with Mus musculus [2] is 12.5 mg/kg; in the assay with Mus musculus [3], 8.4 mg/kg.
`CC(C)N1CCC(Sc2c[nH]c3ccc(Cl)cc23)CC1` registered an inhibition in vivo at 30 mg/kg with Mus musculus [1] of 38%.
Turning to `CN1CCC(Sc2c[nH]c3ccc(Cl)cc23)CC1`, the ED50 with Mus musculus [2] was 4 mg/kg; with Mus musculus [3], 16.9 mg/kg; in the assay on Mus musculus [7] it was 25.3 mg/kg; in the assay on Rattus norvegicus [8] it was 4.9 mg/kg. This compound returned a Ki in assay [5] of 3.01 nM. The inhibition in vivo at 60 mg/kg in the assay with Rattus norvegicus [6] was found to be 62%.
For the compound `CN1CCC(Sc2cn(C)c3ccc(Br)cc23)CC1`, the ED50 stood at 5.4 mg/kg in the assay on Mus musculus [2] and 8.6 mg/kg in the assay on Mus musculus [3].
On the same counts, the results for `CN1CCC(Sc2cn(C)c3ccc(Cl)cc23)CC1` are 3.9 mg/kg and 9.3 mg/kg.
Consider `Cc1[nH]c2ccc(F)cc2c1SC1CCN(C)CC1`, for which the ED50 in the assay on Mus musculus [2] was determined as 35.6 mg/kg.
Compound `Cc1ccc2[nH]cc(SC3CCN(C)CC3)c2c1` returned an inhibition in vivo at 30 mg/kg with Mus musculus [1] of 25%.
As to `CON1CCC(Sc2c[nH]c3ccc(Cl)cc23)CC1`, the ED50 stood at 1.4 mg/kg in the assay with Mus musculus [2] and 2.3 mg/kg with Mus musculus [3].
Compound `Cc1c(SC2CCNCC2)c2cc(Cl)ccc2n1Cc1ccc(Cl)cc1` came in with an inhibition in vivo at 30 mg/kg in the assay with Mus musculus [1] of 27%.
For `CON1CCC(Sc2c[nH]c3ccc(Br)cc23)CC1`, the figures for the ED50 with Mus musculus [2] and with Mus musculus [3] were 1.6 mg/kg and 3.2 mg/kg, respectively.
Take `Cc1[nH]c2ccc(Cl)cc2c1SC1CCNCC1`: the ED50 in the assay with Mus musculus [2] is 0.8 mg/kg; with Mus musculus [3] it was 9.9 mg/kg.
Turning to `Cc1[nH]c2ccc(F)cc2c1SC1CCNCC1`, the ED50 with Mus musculus [2] is 5.9 mg/kg; with Mus musculus [3], 12.7 mg/kg.
As to `O=CN1CCC(Sc2c[nH]c3ccc(Br)cc23)CC1`, the inhibition in vivo at 30 mg/kg in the assay on Mus musculus [1] came out at 31%.
As for `Cc1[nH]c2ccc(C(F)(F)F)cc2c1SC1CCNCC1`, in the assay with Mus musculus [2], the ED50 came out at 19.4 mg/kg. The inhibition in vivo at 30 mg/kg with Mus musculus [4] was determined as 41%.
`Clc1ccc(-c2[nH]c3ccc(Cl)cc3c2SC2CCNCC2)cc1` displayed an inhibition in vivo at 30 mg/kg in the assay with Mus musculus [1] of 26%.
Take `CN1CCC(S(=O)(=O)c2c[nH]c3ccc(Cl)cc23)CC1`: the ED50 with Mus musculus [2] is 5.4 mg/kg; in the assay on Mus musculus [3], 16 mg/kg.
With `CN1CCC([S+]([O-])c2c[nH]c3ccc(Cl)cc23)CC1` (stereo not given), the inhibition in vivo at 30 mg/kg in the assay on Mus musculus [1] was 44%.
`Clc1ccc2[nH]cc(SC3CCN(Cc4ccccc4)CC3)c2c1`: in the assay with Mus musculus [2], the ED50 is 9.7 mg/kg. Further, the inhibition in vivo at 30 mg/kg with Mus musculus [4] turned out to be 32%.
For `CON1CCC(Sc2cn(C)c3ccc(C(=O)O)cc23)CC1`, at 30 mg/kg the inhibition in vivo in the assay with Mus musculus [1] was 25%.
For `Cc1[nH]c2ccc(Br)cc2c1SC1CCNCC1`, the ED50 with Mus musculus [2] amounted to 0.7 mg/kg; with Mus musculus [3] it was 3.1 mg/kg.
In the case of `CCCCn1cc(SC2CCN(C)CC2)c2cc(Br)ccc21`, at 30 mg/kg the inhibition in vivo in the assay with Mus musculus [1] was 21%.
Same read-out and setting: next, `CC(C)c1ccc2[nH]cc(SC3CCN(C)CC3)c2c1`: 48%.
`CN1CC[C@]23c4c5ccc(O)c4O[C@H]2[C@@H](O)C=C[C@H]3[C@H]1C5` [MORPHINE]: the ED50 in the assay filed under Mus musculus [9] is 15 mg/kg; with Mus musculus [3], 28.9 mg/kg; in the assay listed under Rattus norvegicus [10], 4.4 mg/kg. In the assay filed under Rattus norvegicus [11], the Dose was 5.2 mg/kg.

These data come from ChEMBL document CHEMBL1133338, “Novel 3-(4-piperidinylthio)-1H-indoles as potent nonopioid orally active central analgesics” (Bioorg Med Chem Lett, 2000).
